Measured values as given in patent US20260159481A1, “INDOLE DERIVATIVE WITH SUBSTITUENT AND PHARMACEUTICAL USE” (MITOIMMUNE THERAPEUTICS INC., priority 2023, published 2026).

Tests used:
Type in all cases: cell-based
fibroblasts (NIH/3T3) = experiment: Protective effect against cell death due to RSL3 (LDH release), NIH/3T3; details: 24 hours
Experimental: (§1) To confirm cell death protection effects on cardiac cells, adrenal medullary cells, renal fibroblasts, retinal epithelial cells, lung epithelial cells, renal proximal tubular epithelial cells, hippocampal neurons and fibroblasts, each type of cells were seeded at 4×10^3 to 1.2×10^4 cells/well in a 96-well plate and cultured for 18 to 24 hours. The example compounds were diluted to have the final concentration of 0.001, 0.003, 0.01, 0.3, 1, 3, and 10 μM, respectively, and then added to different wells and cultured for 15 to 20 minutes. […] To confirm the cell death protection effect of the example compounds, the degree of extracellular secretion of lactate dehydrogenase (LDH) was measured using a cytotoxicity LDH assay kit [Dojindo; CK12]. Briefly, at the end of 24-hour treatment of each type of cells with RSL3, 70 μL of the supernatant was taken from the 96-well plate where the cells were cultured and transferred to a new 96-well plate. The assay buffer included in the kit was added at 70 μL/well (equal to that of the sample) and the plate was covered with foil to block light and allowed to react for 15 to 20 minutes at room temperature. While observing a color change of the sample, 35 µL/well of a stop solution was added, an absorbance at 490 nm was measured using an iD3 spectrophotometer, and an EC50 value was calculated.

cardiac cells (H9C2) = experiment: Protective effect against cell death due to RSL3 (LDH release), H9C2; details: RSL3 0.5 μM, 24 hours
Experimental: as §1

MLE-12 cells [1] = experiment: Inhibitory effect on mitochondrial accumulation of ferrous ions (Mito-FerroGreen) under RSL3; details: 1 μM RSL3, 8 hours, compound 0.01, 0.1, 1 μM, FIG. 6
Experimental: To confirm the inhibitory effect on the mitochondrial accumulation of ferrous ions in lung epithelial cells, MILE-12 cells were seeded at 2×10^5 cells/well in a 12-well plate and cultured for 18 to 24 hours. Example Compound 29 and Fer-1 were diluted to have the final concentration of 0.01, 0.1, and 1 μM and added to each well, and the cells were cultured for 10 minutes. Afterward, RSL3 was treated to have the final concentration of 1 μM, and the cells were cultured for 8 hours. To confirm the inhibitory effect on the mitochondrial accumulation of ferrous ions, Mito-FerroGreen (DOJINDO; M489) was used. According to the manufacturer's protocol, the Mito-FerroGreen was diluted in the culture broth to have the final concentration of 1 μM, and fluorescence staining was performed after a 30-minute reaction. The MLE-12 cells that were fluorescence-stained with Mito-FerroGreen were detached from the 12-well plate using 0.25% trypsin-EDTA and transferred to a microtube. Fluorescence (Ex/Em=505 nm/535 nm) was measured using, BD FACSLyric™, and the relative change compared to the control was calculated.

[2] = tested on: retinal epithelial cells (ARPE-19); experiment: Protective effect against cell death due to RSL3 (LDH release), ARPE-19; details: RSL3 0.3 μM, 24 hours
Experimental: as §1

MLE-12 cells [3] = experiment: Inhibitory effect on cytosolic ROS (CM-H2DCFDA) under RSL3; details: 1 μM RSL3, 2 hours, compound 0.01, 0.1, 1 μM, FIG. 3
Experimental: To confirm the protective effect against cyto-ROS in lung epithelial cells, MLE-12 cells were seeded at 2×10^5 cells/well in a 12-well plate, and cultured for 18 to 24 hours. Example Compound 29 and Fer-1 were diluted to have the final concentration of 0.01, 0.1, and 1 μM and added to each well, and the cells were cultured for 10 minutes. Afterward, RSL3 was treated to have the final concentration of 1 M, and the cells were cultured for 2 hours. To confirm the inhibitory effect on cyto-ROS, the general oxidative stress indicator CM-H2DCFDA (Invitrogen™; C6827) was used. According to the manufacturer's protocol, CM-H2DCFDA was diluted in the culture broth to have the final concentration of 5 μM, and fluorescence staining was performed after a 30-minute reaction. The MLE-12 cells that were fluorescence-stained with CM-H2DCFDA were detached from the 12-well plate using 0.25% trypsin-EDTA and transferred to a microtube. Fluorescence (Ex/Em=492˜495 nm/517-527 nm) was measured using BD FACSLyric™, and the relative change compared to the control (RSL3-untreated group) was calculated.

[4] = tested on: adrenal medullary cells (PC-12); experiment: Protective effect against cell death due to RSL3 (LDH release), PC-12; details: RSL3 0.3 μM, 24 hours
Experimental: as §1

MLE-12 cells [5] = experiment: Inhibitory effect on mitochondrial lipid ROS (MitoPerOx) under RSL3; details: 1 μM RSL3, 2 hours, compound 0.01, 0.1, 1 μM, FIG. 2
Experimental: To confirm the protective effect against mito-lipid ROS in lung epithelial cells, MLE-12 cells were seeded at 2×10^5 cells/well in a 12-well plate and cultured for 18 to 24 hours. Example Compound 29 and Fer-1 were diluted to have the final concentration of 0.01, 0.1, and 1 μM and added to each well, and the cells were cultured for 10 minutes. Afterward, RSL3 was treated to have the final concentration of 1 M, and the cells were cultured for 2 hours. To confirm the inhibitory effect on mito-lipid ROS, the fluorescent mitochondria-targeted lipid peroxidation probe MitoPerOx (abcam; ab146820) was used. According to the manufacturer's protocol, MitoPerOx was diluted in the culture broth to have the final concentration of 1 μM and treated, and fluorescence staining was performed after a 30-minute reaction. The MLE-12 cells that were fluorescence-stained with MitoPerOx were detached from the 12-well plate using 0.25% trypsin-EDTA and transferred to a microtube. Fluorescence (Ex/Em=495 nm/520-590 nm) was measured using BD FACSLyric™, and the relative change compared to the control was calculated.

[6] = tested on: renal proximal tubular epithelial cells (HK2); experiment: Protective effect against cell death due to RSL3 (LDH release), HK2; details: RSL3 0.3 μM, 24 hours
Experimental: as §1

[7] = tested on: lung epithelial cells (MLE-12); experiment: Protective effect against cell death due to RSL3 (LDH release), MLE-12; details: 24 hours
Experimental: as §1

[8] = tested on: renal fibroblasts (NRK-49F); experiment: Protective effect against cell death due to RSL3 (LDH release), NRK-49F; details: RSL3 3 μM, 24 hours
Experimental: as §1

[9] = tested on: hippocampal neurons (HT-22); experiment: Protective effect against cell death due to RSL3 (LDH release), HT-22; details: RSL3 0.3 μM, 24 hours
Experimental: as §1

Structure (SMILES)	EC50 (fibroblasts (NIH/3T3); Mus musculus, NIH3T3, RSL3 3 μM)	EC50 (cardiac cells (H9C2); Rattus norvegicus)	mitochondrial ferrous ions increased by RSL3 treatment (MLE-12 cells [1])	EC50 ([2]; Homo sapiens)	cyto-ROS increased by RSL3 treatment (MLE-12 cells [3])	EC50 ([4]; Rattus norvegicus)	mito-lipid ROS increased by RSL3 treatment (MLE-12 cells [5])	EC50 ([6]; Epithelial cell)	EC50 ([7]; MLE12, RSL3 1 μM)	EC50 ([8]; Rattus norvegicus)	EC50 ([9]; Mus musculus)	EC50 (fibroblasts (NIH/3T3); RSL3 3 μM)	EC50 (cardiac cells (H9C2))	EC50 [2]	EC50 [4]	EC50 [6]	EC50 ([7]; RSL3 1 μM)	EC50 [8]	EC50 [9]
OCCOCCOCc1cc(NC2CCOCC2)c2[nH]c(-c3ccccc3)cc2c1 [Example 29, 2-(2-((2-phenyl-7-((tetrahydro-2H-pyran-4-yl)amino)-1H-indol-5-yl)methoxy)ethoxy)ethan-1-ol]	100 to 1000 nM	≤ 100 nM	significantly reduced mitochondrial ferrous ion levels at 0.01, 0.1, and 1 M	≤ 100 nM	significantly reduced lipid ROS levels at 0.1 and 1 μM	100 to 1000 nM	significantly decreased at 1 μM	≤ 100 nM	≤ 100 nM	≤ 100 nM	≤ 100 nM								
CCOC(=O)c1ccc(NC2CCCCC2)c(N)c1 [Fer-1, ferrostatin-1, reference compound]			significantly reduced mitochondrial ferrous ion levels at 0.1 and 1 μM		significantly reduced lipid ROS levels at 0.01, 0.1 and 1 μM		significantly decreased at 1 μM					100 to 1000 nM	≤ 100 nM	≤ 100 nM	≤ 100 nM	≤ 100 nM	100 to 1000 nM	≤ 100 nM	100 to 1000 nM
